From ChEMBL document CHEMBL1795257, “Synthesis of new opioid derivatives with a propellane skeleton and their pharmacology: part 1” (Bioorg Med Chem Lett, 2011)
The source made the active and inactive calls. No cut-off for these calls is given here.

Experiments:
[1] = target: Kappa-type opioid receptor (Cavia porcellus, UniProt P41144); test: Displacement of [3H]U69593 from kappa opioid receptor in guinea pig cerebellum homogenate by scintillation counting; format: tissue-based
Mus musculus [2] = test: Antinociceptive activity in sc dosed mouse assessed as inhibition of acetic acid-induced writhing; format: functional
Mus musculus [3] = test: Antinociceptive activity in sc dosed mouse assessed as inhibition of acetic acid-induced writhing in presence of kappa opioid antagonist nor-BNI; format: functional, organism-based
[4] = Displacement of [3H]NTI from delta opioid receptor in guinea pig forebrain homogenate by scintillation counting; format: tissue-based, Cavia porcellus, Brain
Cavia porcellus = species: Cavia porcellus; test: Selectivity ratio of Ki for delta opioid receptor in guinea pig forebrain homogenate to Ki for kappa opioid receptor in guinea pig cerebellum homogenate; format: tissue-based
Mu-type opioid receptor = Mu-type opioid receptor (Cavia porcellus, UniProt P97266); test: Displacement of [3H]DAMGO from mu opioid receptor in guinea pig forebrain homogenate by scintillation counting; format: tissue-based, Brain
Mus musculus [5] = test: Antinociceptive activity in sc dosed mouse assessed as inhibition of acetic acid-induced writhing in presence of mu opioid […] naloxone; format: functional, organism-based

Sequence of Mu-type opioid receptor (P97266 whole entry): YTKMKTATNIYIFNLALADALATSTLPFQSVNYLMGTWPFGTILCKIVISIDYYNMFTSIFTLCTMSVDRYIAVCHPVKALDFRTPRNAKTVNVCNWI
Sequence of Kappa-type opioid receptor (P41144 whole entry): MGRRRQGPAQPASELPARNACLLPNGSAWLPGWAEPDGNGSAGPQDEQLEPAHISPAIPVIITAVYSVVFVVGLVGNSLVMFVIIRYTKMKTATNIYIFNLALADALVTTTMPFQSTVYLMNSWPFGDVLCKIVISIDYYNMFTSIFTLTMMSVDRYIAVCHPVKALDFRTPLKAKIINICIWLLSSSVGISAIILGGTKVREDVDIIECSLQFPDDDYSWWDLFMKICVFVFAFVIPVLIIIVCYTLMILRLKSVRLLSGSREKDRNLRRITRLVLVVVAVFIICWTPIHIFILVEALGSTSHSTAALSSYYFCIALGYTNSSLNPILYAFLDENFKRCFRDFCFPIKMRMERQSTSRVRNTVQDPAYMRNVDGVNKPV

Compound	Ki [1]	ED50 (Mus musculus [2])	Activity (Mus musculus [3])	Ki [4]	Ratio Ki (Cavia porcellus)	Ki (Mu-type opioid receptor)	Activity (Mus musculus [5])	Activity (Mus musculus [2])
O=C1CCC23Cc4ccc(O)cc4C2(CCN(CC2CC2)C3)C1 (centres undefined)	17.4 nM	0.86 mg/kg	inactive	448 nM	26	58.2 nM	inactive	–
Oc1ccc2c3c1OC1C4(O)CC[C@@]5(OC4)[C@@H](C2)N(CC2CC2)CC[C@]315 (some centres undefined)	0.34 nM	–	–	10.3 nM	30	0.16 nM	–	–
O=C1CC[C@@]2(O)[C@H]3Cc4ccc(O)cc4[C@@]2(CCN3CC2CC2)C1	0.038 nM	–	–	1.82 nM	48	0.14 nM	–	–
O=C1CC23CCN(CC4CC4)C(Cc4ccc(O)cc42)C32CCC1O2 (centres undefined)	–	–	–	–	30	–	–	–
O=C1CC[C@@]2(O)[C@H]3Cc4ccc(O)c5c4[C@@]2(CCN3CC2CC2)[C@H]1O5	–	–	–	–	56	–	–	–
CN1CC[C@]23c4c5ccc(O)c4O[C@H]2C(=O)CC[C@@]3(O)[C@H]1C5 [OXYMORPHONE]	–	–	–	42.7 nM	–	–	–	–
CN1CC[C@]23c4c5ccc(O)c4O[C@H]2[C@@H](O)C=C[C@H]3[C@H]1C5	–	–	–	–	–	–	–	Active
CC(C)=CCN1CC[C@@]2(C)c3cc(O)ccc3C[C@@H]1[C@@H]2C	3.6 nM	–	–	23.1 nM	6.4	4.6 nM	–	–
CN1CCC23CC(=O)CCC2(Cc2ccc(O)cc23)C1 (centres undefined)	255 nM	–	–	441 nM	1.7	3.6 nM	–	–
OCC12CC[C@@]3(O1)[C@H]1Cc4ccc(O)cc4[C@@]3(CCN1CC1CC1)C2	–	–	–	–	35	–	–	–
CCC12CCN(CC3(O)CC3)[C@H](Cc3ccc(O)cc31)C2(C)C	–	–	–	0.9 nM	–	0.2 nM	–	–
O=C1CCC23Cc4ccc(O)cc4C2(CCN(CC2(O)CC2)C3)C1 (centres undefined)	21.7 nM	–	–	500 nM	23	77.7 nM	–	–
